In paper PMC4769088, “Antifungal Activity and Action Mechanism of Histatin 5-Halocidin Hybrid Peptides against Candida ssp” (PLoS ONE, 2016):
In brackets after ≈: the same amount, converted by molar mass. Where a SMILES comes first, the peptide text is derived from it. Bridges are numbered along the chain shown (N, C = ends). Roman numbers before positions name the chains, in order.

Experiments:
L929 cells = experiment: Cytotoxic activity (WST-1 cell viability assay); type: cell-based, mouse; details: 24 h treatment, WST-1, OD 460 nm
Protocol: The cytotoxicity of hybrid peptides was evaluated in mouse […] cells (L929, Korean Collection for Type Cultures, KCTC). L929 cells in RPMI1640-10% FBS (100 μL, 3 × 10^5 cells/ml) were seeded in 96-well plates and cultured at 37°C for 24 h in a 5% CO2 incubator. The L929 cells were treated with peptides at predetermined concentrations for 24 h, and 10 μl of EZ-Cytox Cell Viability Assay solution WST-1® (Daeil Lab Service, Korea) were added to each well. Three hours later, the cytotoxicity of peptides against L929 cells was assessed by measuring the optical density at 460 nm using a Perkin Elmer 2030 Reader (Victor X3).

[1] = test system: pustulan (β-1,6-glucan polymer), C. albicans cell wall component; experiment: Binding/radial diffusion assay with pustulan; type: cell-based; details: peptide final 180 μg/ml, pre-incubated 2 h at 37°C, radial diffusion assay
Protocol: The candidacidal activities of the peptides were tested by using standard microdilution plate assays, radial diffusion assays and broth dilution assay slightly modified from the procedure recommended by the National Committee for Clinical Laboratory Standards. For the candidacidal assays, C. albicans cells were grown in YPD medium and washed twice with 10 mM sodium phosphate buffer (NaPB; Na2HPO4, NaH2PO4, pH 7.4). The cells (1 x 10^6) were then mixed with different concentrations of peptides and incubated at 30°C with constant shaking for 60 min. For energy depletion experiments, cells were pre-incubated with 10 mM NaPB containing 5 mM NaN3 at 30°C for 60 min before the addition of peptides. The cell suspensions were diluted in 10 mM NaPB and aliquots of 500 cells were spread onto YPD agar plates then incubated for 24 h at 30°C to visualize the surviving colonies. Cell survival was expressed as a percentage of that for the control, and the loss of viability was calculated as [1 x (number of colonies from peptide-treated cells/number of colonies from control cells)] x 100. […] The clear-zone diameters were measured to the nearest 0.1 mm and graphed against the peptide concentration. […] The numbers of yeasts were counted using a hemocytometer. […] The antifungal activities were evaluated after 24 h of incubation at 30°C by the observation of visible turbidity the wells. […]

SMILES: CC(C)C[C@H](NC(=O)CNC(=O)[C@H](Cc1c[nH]cn1)NC(=O)[C@H](Cc1c[nH]cn1)NC(=O)[C@H](CC(C)C)NC(=O)[C@H](CC(C)C)NC(=O)[C@H](C)NC(=O)[C@H](CC(N)=O)NC(=O)[C@H](CC(C)C)NC(=O)[C@@H](N)Cc1c[nH]c2ccccc12)C(=O)N[C@@H](CC(N)=O)C(=O)N[C@@H](CSSC[C@H](NC(=O)[C@H](CC(N)=O)NC(=O)[C@H](CC(C)C)NC(=O)CNC(=O)[C@H](Cc1c[nH]cn1)NC(=O)[C@H](Cc1c[nH]cn1)NC(=O)[C@H](CC(C)C)NC(=O)[C@H](CC(C)C)NC(=O)[C@H](C)NC(=O)[C@H](CC(N)=O)NC(=O)[C@H](CC(C)C)NC(=O)[C@@H](N)Cc1c[nH]c2ccccc12)C(=O)N[C@@H](C)C(=O)N[C@@H](CCCCN)C(=O)NCC(=O)N[C@H](C(=O)N[C@@H](CC(C)C)C(=O)N[C@@H](C)C(N)=O)C(C)C)C(=O)N[C@@H](C)C(=O)N[C@@H](CCCCN)C(=O)NCC(=O)N[C@H](C(=O)N[C@@H](CC(C)C)C(=O)N[C@@H](C)C(N)=O)C(C)C [di-18Hc, reference compound] (I: H-WLNALLHHGLNCAKGVLA-NH2 / II: H-WLNALLHHGLNCAKGVLA-NH2; disulfide I:12-II:12 (inferred); N-terminus assumed)
- CC50 (L929 cells): 72.385 µg/mL (≈ 18.8 µM)
- pustulan concentration at which activity began to decrease [1]: 20 mg/mL

SMILES: CC(C)C[C@H](NC(=O)[C@@H](N)Cc1c[nH]c2ccccc12)C(=O)N[C@@H](CC(N)=O)C(=O)N[C@@H](C)C(=O)N[C@@H](CCCCN)C(=O)N[C@@H](CCCNC(=N)N)C(=O)N[C@@H](Cc1c[nH]cn1)C(=O)N[C@@H](Cc1c[nH]cn1)C(=O)NCC(=O)N[C@@H](Cc1ccc(O)cc1)C(=O)N[C@@H](CCCCN)C(=O)N[C@@H](CSSC[C@H](NC(=O)[C@H](CCCCN)NC(=O)[C@H](Cc1ccc(O)cc1)NC(=O)CNC(=O)[C@H](Cc1c[nH]cn1)NC(=O)[C@H](Cc1c[nH]cn1)NC(=O)[C@H](CCCNC(=N)N)NC(=O)[C@H](CCCCN)NC(=O)[C@H](C)NC(=O)[C@H](CC(N)=O)NC(=O)[C@H](CC(C)C)NC(=O)[C@@H](N)Cc1c[nH]c2ccccc12)C(=O)N[C@@H](CCCCN)C(=O)N[C@@H](Cc1ccccc1)C(=O)N[C@@H](Cc1c[nH]cn1)C(N)=O)C(=O)N[C@@H](CCCCN)C(=O)N[C@@H](Cc1ccccc1)C(=O)N[C@@H](Cc1c[nH]cn1)C(N)=O [di-WP2] (I: H-WLNAKRHHGYKCKFH-NH2 / II: H-WLNAKRHHGYKCKFH-NH2; disulfide I:12-II:12 (inferred); N-terminus assumed)
- pustulan concentration at which activity began to decrease [1]: 20 mg/mL
